Patent publication US20250353873A1, “COMPOUNDS AND METHODS FOR MODULATING APOE EXPRESSION” (Ionis Pharmaceuticals, Inc., priority 2024, published 2025)
Several values for one entry are separate records, joined by “and”; a condition that tells them apart may be missing. Equal values may be shown once. Read-outs that look alike come from different tables or passages of the source. Marks after values point to notes of the source that are not given here. Strand notation (5' to 3'): a small letter for the sugar, then the base; units joined by * are phosphorothioate-linked, units joined directly phosphodiester-linked; [ ] holds rarer units or linkages, { } end groups; capitals alone tell only the bases. [ms] = mesyl phosphoramidate linkage; e = 2'-O-(2-methoxyethyl) (MOE); k = constrained ethyl (cEt); [5mC] = 5-methylcytosine; d = 2'-deoxy (DNA)

What was measured:
[1] = tested on: human APOE RNA; test: Duration of action study in APOE C57BL/6NTac-Apoeem7250 knock-in mice (Example 18); type: in vivo
Description: Modified oligonucleotides described above were tested in the APOE C57BL/6NTac-Apoeem7250 knock-in model (described above).
Each mouse received a single intracerebroventricular (ICV) bolus of 300 μg of modified oligonucleotide. A group of 4-6 mice received a single ICV bolus with PBS as a negative control.
(§1) Mice were sacrificed at various timepoints as indicated in the table below and RNA was extracted from cortical brain tissue and spinal cord for quantitative real-time RT-PCR analysis of RNA expression of APOE using primer probe set RTS3073 (described herein above). APOE RNA levels were normalized to mouse Ppia. Mouse Ppia was amplified using primer probe set m_cyclo24 (described herein above). Results are presented as percent human APOE RNA relative to the amount of human APOE RNA in PBS treated animals, (% control). Each experiment is identified in separate tables below.

[2] = tested on: BJAB cells; test: Evaluation of proinflammatory effects in BJAB assay, CCL22 RNA (Example 17); conditions: for inflammatory response in human BJAB cells: 24-hour culturing period, assay of Example 17; for LOG10 CCL22 relative to UTC / Immunostimulatory Properties: BJAB cells, 1.6 μM, 24 hours; for LOG10 CCL22 relative to UTC: CCL22 RNA normalized to GAPDH; for Immunostimulatory Properties: assigned relative to internal control compounds of each assay
Description: (§2) Human APOE modified oligonucleotides were tested for potential immunostimulatory properties in an in vitro human BJAB activation assay.
(§3) Human Burkitt lymphoma B cells, BJAB cells (DSMZ, Cat #ACC 757) were cultured in RPMI1640 medium containing 20% fetal bovine serum at 37° C. and 5% CO2. Cells were maintained at a density of 0.5-0.7×10^6 cells per milliliter. Cells were transferred to 50 mL conical Falcon tubes and centrifuged at 330 RCF for 5 minutes before being resuspended at a concentration of 7.5×10^4 cells per milliliter in RPMI culture medium containing penicillin and streptomycin. 50 μL of the cell suspension was added to a v-bottom tissue culture treated 96-well microplate. 11 μl of 10× concentrated modified oligonucleotides was then added to the plate for a final concentration of 1.6 μM and incubated for 24 hours at 37° C. and 5% CO2.
(§4) After a treatment period of 24 hours, total RNA was isolated from the cells and CCL22 RNA levels were measured by quantitative real-time RT-PCR. CCL22 RNA levels were measured by human primer-probe set RTS49260 (forward sequence [sequence], designated herein as SEQ ID NO: 19; reverse sequence [sequence], designated herein as SEQ ID NO: 20; probe sequence [sequence], designated herein as SEQ ID NO: 21). CCL22 RNA levels were normalized to total RNA content, as measured by GAPDH. Human GAPDH was measured using the human primer-probe set RTS104 (forward sequence [sequence], designated herein as SEQ ID NO: 10; reverse sequence [sequence], designated herein as SEQ ID NO: 11; probe sequence [sequence], designated herein as SEQ ID NO: 12). Levels of CCL22 RNA is presented log fold increase of CCL22, relative to untreated control cells (UTC). The assignment of the immunostimulatory properties of the test compounds is based on the immunostimulatory properties of the internal control compounds in each assay.

[3] = tested on: BJAB cells
Description: as §2, §3, §4

[4] = tested on: human APOE RNA; test: Activity in APOE 1549 knock-in mice, single ICV bolus, 4 weeks (Example 8); type: in vivo; conditions: n = 6, single ICV bolus 300 μg, 4 weeks
Description: Modified oligonucleotides described above were tested in the 1549 APOE knock-in mouse model described above.
APOE knock-in mice were divided into groups of either 2 or 6 mice each as described in the tables below. Each mouse received a single intracerebroventricular (ICV) bolus of 300 μg of modified oligonucleotide. A group of either 3 or 6 mice received a single ICV bolus with PBS as a negative control.
as §1, with “Four weeks post treatment, mice” for “Mice”, “sacrificed” for “sacrificed at various timepoints as indicated in the table below”

[5] = tested on: human APOE RNA; test: Activity in APOE 1549 knock-in mice, single ICV bolus, 2 weeks (Example 7); type: in vivo; conditions: single ICV bolus of 300 μg, two weeks post treatment, Table 17
Procedure, shortened: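 Human APOE knock-in mice (model 41549), 2 per group, given a single 300 µg ICV bolus of oligonucleotide, with PBS as control. After 2 weeks, APOE RNA in cortex and spinal cord measured by RT-qPCR, normalized to mouse Ppia, and expressed as % of PBS control.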

[6] = tested on: human APOE RNA; test: Activity in APOE C57BL/6NTac-Apoeem7250 knock-in mice, single ICV bolus, 2 weeks (Example 9); type: in vivo; conditions: single ICV bolus 300 μg
Description: Modified oligonucleotides described above were tested in the APOE knock-in mouse model C57BL/6NTac-Apoeem7250_B-A02(APOE)Tac, a heterozygous APOE mouse model. APOE knock-in mice used in this study express the full-length human APOE gene knocked into the mouse locus. Humanization of APOE gene was done via CRISPR/Cas-9-mediated gene editing, allowing for generation of a model with constitutive expression of human APOE gene. Targeting strategy was based on NCBI transcripts NM_009696.4 (mouse) and NM_000041.4 (human). Mouse genomic sequence from exon 1 to exon 4 (including the 5′ and 3′ UTRs) was replaced with the human counterpart from 141 bp upstream of exon 1 to 28 bp downstream of exon 4. A plasmid allowing expression of Cas9 mRNA, specific gRNA, and the puromycin resistance cassette, and a plasmid containing the homology regions of the mouse APOE gene, and the replaced human region were co-transfected into the Taconic Biosciences C57BL/6N Tac ES cell line. Homologous recombination clones were isolated using positive puromycin selection, and humanized allele was obtained after Cas9-mediated gene editing. C57BL/6NTac-Apoeem7250_B-A02(APOE)Tac mice were used in the in vivo experiments described below.
APOE C57BL/6NTac-Apoeem7250 knock-in mice were divided into groups of 3 mice each. Each mouse received a single ICV bolus of 300 μg of modified oligonucleotide. A group of 3 mice received a single ICV bolus with PBS as a negative control.
Two weeks post treatment, mice were sacrificed and RNA was extracted from cortical brain tissue and spinal cord for quantitative real-time RT-PCR analysis of RNA expression of APOE using human primer probe set RTS3073 (described herein above). APOE RNA levels were normalized to mouse Ppia. Mouse Ppia was amplified using primer probe set m_cyclo24 (described herein above). Results are presented as percent human APOE RNA relative to the amount of human APOE RNA in PBS treated animals, (% control).

[7] = 196 days post-dose, single ICV bolus 300 μg, APOE knock-in mice, normalized to mouse Ppia, relative to PBS
[8] = 224 days post-dose, single ICV bolus 300 μg, APOE knock-in mice, normalized to mouse Ppia, relative to PBS
[9] = 285 days post-dose, single ICV bolus 300 μg, APOE knock-in mice, normalized to mouse Ppia, relative to PBS

| Substance | APOE RNA (% control) Cortex ([1]; 300 μg ICV, 28 days post-dose) | APOE RNA (% control) Cortex ([1]; 300 μg ICV, 112 days post-dose) | APOE RNA (% control) Cortex ([1]; 300 μg ICV, 140 days post-dose) | APOE RNA (% control) Cortex [1, 7] | APOE RNA (% control) Cortex [1, 8] | APOE RNA (% control) Cortex [1, 9] | APOE RNA (% control) Spinal Cord ([1]; 300 μg ICV, 28 days post-dose) | APOE RNA (% control) Spinal Cord ([1]; 300 μg ICV, 112 days post-dose) | APOE RNA (% control) Spinal Cord ([1]; 300 μg ICV, 140 days post-dose) | APOE RNA (% control) Spinal Cord [1, 7] | APOE RNA (% control) Spinal Cord [1, 8] | APOE RNA (% control) Spinal Cord [1, 9] | inflammatory response in human BJAB cells [2] | LOG10 CCL22 relative to UTC [2] | Immunostimulatory Properties [2] | inflammatory response in human BJAB cells [3] | other results |
| --- | --- | --- | --- | --- | --- | --- | --- | --- | --- | --- | --- | --- | --- | --- | --- | --- | --- |
| TezTeoGeoGksTdsGdzAdzAdzTds^mCdsTdsTdsTdsAdzTksTksAesAesAes^mCe (antisense eT[ms]eTeGkG*dT*dG[ms]dA[ms]dA[ms]dT*d[5mC]*dT*dT*dT*dA[ms]kT*kT*eA*eA*eA*e[5mC]) [Compound No. 1809814] | 55 % control | 57 % control | 71 % control | 68 % control | 90 % control | 95 % control | 52 % control | 39 % control | 43 % control | 57 % control | 54 % control | 84 % control | did not induce any inflammatory response | 0.07 | Non-Inflammatory |  |  |
| Aes^mCeoTeoTesGesGksTdsGdzAdzAdzTds^mCdsTdsTdsTdsAdzTksTksAesAe (eA*e[5mC]eTeT*eG*kG*dT*dG[ms]dA[ms]dA[ms]dT*d[5mC]*dT*dT*dT*dA[ms]kT*kT*eA*eA) [Compound No. 1757576] |  |  |  | 71 % control | 92‡ % control | 87 % control |  |  |  | 28 % control | 33‡ % control | 86 % control |  |  |  | did not induce any inflammatory response | APOE RNA (% control) Cortex ([4]; Cortex): 26 % control; APOE RNA (% control) Spinal Cord ([4]; Spinal Cord): 17 % control |
| ^mCksTksTksGdzGdzTdzGdzAdzAdzTds^mCdsTdsTdsTdsAdsTdsTksAksAdzAk (antisense k[5mC]*kT*kT*dG[ms]dG[ms]dT[ms]dG[ms]dA[ms]dA[ms]dT*d[5mC]*dT*dT*dT*dA*dT*kT*kA*dA[ms]kA) [Compound No. 1785602] |  |  |  | 56 % control | 79 % control | 84† % control |  |  |  | 34 % control | 56 % control | 72† % control | did not induce any inflammatory response | 0.34 | Non-Inflammatory |  |  |
| 1693105: 6-10-4 MOE gapmer CTTGGTGAATCTTTATTAAA, linkages sosssszzzssssszssss (e[5mC]*eTeT*eG*eG*eT*dG[ms]dA[ms]dA[ms]dT*d[5mC]*dT*dT*dT*dA[ms]dT*eT*eA*eA*eA) [compound 1693105] |  |  |  |  |  |  |  |  |  |  |  |  |  |  |  |  | APOE RNA (% control) Cortex ([5]; cortex): 51 % control; APOE RNA (% control) Spinal Cord ([5]; spinal cord): 38 % control; APOE RNA (% control) Cortex ([6]; Cortex): 65 % control; APOE RNA (% control) Spinal Cord ([6]; Spinal Cord): 54 % control |
| Aks^mCeoTeoTesGesGksTdsGdzAdzAdzTds^mCdsTdsTdsTdsAdzTksTksAesAe (kA*e[5mC]eTeT*eG*kG*dT*dG[ms]dA[ms]dA[ms]dT*d[5mC]*dT*dT*dT*dA[ms]kT*kT*eA*eA) [Compound No. 1809635] | 29 % control and 25 % control | 24 % control and 35 % control | 52‡ % control | 50 % control | 55 % control | 67 % control | 11 % control and 18 % control | 13 % control and 14 % control | 27‡ % control | 33 % control | 26 % control | 41 % control |  |  |  | did not induce any inflammatory response | APOE RNA (% control) Cortex ([1]; 300 μg ICV, 56 days post-dose): 19 % control; APOE RNA (% control) Cortex ([1]; 300 μg ICV, 168 days post-dose): 35 % control; APOE RNA (% control) Cortex ([1]; 300 μg ICV, 342 days post-dose): 68 % control; APOE RNA (% control) Spinal Cord ([1]; 300 μg ICV, 56 days post-dose): 11 % control; APOE RNA (% control) Spinal Cord ([1]; 300 μg ICV, 168 days post-dose): 26 % control; APOE RNA (% control) Spinal Cord ([1]; 300 μg ICV, 342 days post-dose): 36 % control |
